Patent US4474811A, “Anti-inflammatory ophthalmic solution and process for preparing the same” (Kakenyaku Kako Co., Ltd., priority 1981, dated 1984)
Counter-ions that a name gives are not always drawn. Like-named read-outs stand apart in the source and are kept apart here.

Experiments:
human eye = assay: Irritation of FP to the human eye (general statement); type: in vivo; details: concentration of FP above 0.2%
Description: Under the coexistence with β-CD or γ-CD, the solubility of FP in a high concentration can be attained and the decrement of the above-mentioned irritation can be attained even by the use of FP in a high concentration. Moreover, an ophthalmic solution containing FP stable for a long term is obtained by coexisting FP with β-CD or γ-CD.

[1] = test system: carrageenan-induced edema; details: administered orally, rat; cited from earlier work
[2] = test system: biosynthesis of PGs from arachidonic acid; details: lung homogenate of guinea pig; cited from earlier work
[3] = test system: intraocular pressure elevation and aqueous humor protein increase; details: rabbits; arachidonic acid; suspensions, FP as aqueous solution; Invest. Ophthalmol., 15(10), 841 to 844 (1976); cited from earlier work
[4] = cited from earlier work
quinine or PGs system = details: compared with known nonsteroidal anti-inflammatory agents; cited from earlier work
[5] = cited from earlier work; remark: listed apart in the source
[6] = test system: eye of the rabbits (pupillary diameter); assay: Mydriasis effect of atropine (Test Example 4); type: in vivo, rabbit; details: 1 w/v % atropine sulfate, 40 μl.
Description: Mydriasis induced by atropine instillation was first observed, assuming that a mydriasis treatment is usually performed prior to operation.
The test was performed using 5 rabbits, and a drop (40 μl.) of a 1 w/v % solution of atropine sulfate in physiological salt solution was instilled to the right eye of the rabbits, and the change of status of the eye with lapse of time was observed by the photographic determination of pupillary diameter. The pupillary diameter difference [(the pupillary diameter at each time after instillation)--(the pupillary diameter before instillation)] and rate of mydriasis (%), which was calculated according to the following formula, were determined. [formula] The pupillary diameter difference and the rate of mydriasis in FIG. 5 are the mean values as to 5 rabbits.

blood-aqueous barrier = details: adding IM instillation vs adding no IM instillation; cited from earlier work
[7] = oil preparation; cited from earlier work
eye ball = details: oil preparation, topical instillation to the eye ball; cited from earlier work
intraocular pressure = details: subconjunctival injection, cited from earlier work

CC(C(=O)O)c1ccc(-c2ccccc2)c(F)c1 (centres unmarked) [FP, 2-(2-fluoro-4-biphenylyl)propionic acid]
irritation to the human eye (human eye): enhanced | anti-inflammatory effect relative to aspirin [1]: 250 times | anti-inflammatory effect relative to indomethacin [1]: 14 times | inhibitory effect on biosynthesis of PGs relative to aspirin [2]: 2,280 times | inhibitory effect on biosynthesis of PGs relative to indomethacin [2]: 10 times | inhibitory effect on the intraocular pressure elevation and aqueous humor protein increase [3]: particularly strong inhibitory effects | solubility [4]: limited solubility | strength of inhibitory effect (quinine or PGs system): the strongest among known nonsteroidal anti-inflammatory agents

CC(=O)Oc1ccccc1C(=O)O [aspirin]
side effect ([5]; in vivo, po): digestive trouble

CN1[C@@H]2CC[C@H]1C[C@@H](OC(=O)C(CO)c1ccccc1)C2 (some centres unmarked) [atropine, atropine sulfate]
time to maximum pupillary diameter [6]: one | change in the maximum pupillary diameter ([6]; even after 6 hours from the instillation): no change

COc1ccc2c(c1)c(CC(=O)O)c(C)n2C(=O)c1ccc(Cl)cc1 [indomethacin]
inhibition on increase of permeability of blood-aqueous barrier after operation, relative to no IM instillation (blood-aqueous barrier): about 3 times | inhibitory effect on the intraocular pressure elevation and aqueous humor protein increase [3]: particularly strong inhibitory effects | side effect ([5]; oral administration in large amounts): digestive trouble | stability of the preparation [7]: poor | feeling in use (eye ball): bad

COc1ccc(-c2[nH]c3ccccc3c2-c2ccc(OC)cc2)cc1 [indoxole]
inhibitory effect on the intraocular pressure elevation and aqueous humor protein increase [3]: particularly strong inhibitory effects

Cc1ccc(Cl)c(Nc2ccccc2C(=O)O)c1Cl [meclofenamic acid]
inhibitory effect on the intraocular pressure elevation and aqueous humor protein increase [3]: particularly strong inhibitory effects

polyphloretin phosphate
effect on intraocular pressure (intraocular pressure; glaucomatocyclitic crisis): effect of decreasing the intraocular pressure | pain (intraocular pressure): causes pain to a patient and eye pain or smart feeling is strong
